Measured values taken from patent US9695155B2, “Herbicidal substituted pyrimidinyloxy benzene compounds” (E. I. DU PONT DE NEMOURS AND COMPANY, priority 2013, dated 2017).

Tests used:
chamomile = test: Test D preemergence; format: in vivo, Matricaria inodora; details: Tripleurospermum inodorum, pre-emergence
How it was run: (§1)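 Plant response is a visual score from 0 (no effect) to 100 (complete control) relative to controls. Plants were kept in a controlled growth environment for 7 to 21 days after spraying. Preemergence treatments went onto silt loam soil; postemergence ones onto 1- to 4-leaf seedlings.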

galium = test: Test D preemergence; format: in vivo, Galium aparine; details: Galium, pre-emergence
How it was run: as §1

chickweed = test: Test D preemergence; format: in vivo, Stellaria media; details: Stellaria media, pre-emergence
How it was run: as §1

canarygrass = test: Test D preemergence; format: in vivo, Phalaris minor; details: Phalaris minor, pre-emergence
How it was run: as §1

wild radish = test: Test D postemergence; format: in vivo, Raphanus raphanistrum; details: Raphanus raphanistrum, post-emergence
Excerpt: (§2) Seeds of plant species selected from bluegrass (annual bluegrass, Poa annua), blackgrass (Alopecurus myosuroides), canarygrass (littleseed canarygrass, Phalaris minor), chickweed (common chickweed, Stellaria media), galium (catchweed bedstraw, Galium aparine), bromegrass, downy (downy bromegrass, Bromus tectorum), field poppy (Papaver rhoeas), field violet (Viola arvensis), green foxtail (Setaria viridis), deadnettle (henbit deadnettle, Lamium amplexicaule), Italian ryegrass (Lolium multiflorum), kochia (Kochia scoparia), lambsquarters (Chenopodium album), oilseed rape (Brassica napus), pigweed (Amaranthus retroflexus), chamomile (scentless chamomile, Matricaria inodora), Russian thistle (Salsola kali), speedwell (bird's-eye speedwell, Veronica persica), spring barley (Hordeum vulgare), spring wheat (Triticum aestivum), wild buckwheat (Polygonum convolvulus), wild mustard (Sinapis arvensis), wild oat (Avena fatua), wild radish (Raphanus raphanistrum), windgrass (Apera spica-venti), winter barley (Hordeum vulgare), and winter wheat (Triticum aestivum) were planted into a silt loam soil and treated preemergence with test chemicals formulated in a non-phytotoxic solvent mixture which included a surfactant.
(§3) At the same time, these species were planted in pots containing Redi-Earth® planting medium (Scotts Company, 14111 Scottslawn Road, Marysville, Ohio 43041) comprising spaghnum peat moss, vermiculite, wetting agent and starter nutrients and treated with postemergence applications of the test chemicals formulated in the same manner. Plants ranged in height from 2 to 18 cm (1- to 4-leaf stage). Treated plants and controls were maintained in a controlled growth environment for 7 to 21 days after which time all species were compared to controls and visually evaluated. Plant response ratings, summarized in Table D, are based on a scale of 0 to 100 where 0 is no effect and 100 is complete control. A dash (-) response means no test result.

speedwell = test: Test D postemergence; format: in vivo, Veronica persica; details: Veronica persica, post-emergence
How it was run: as §1

Italian ryegrass = test: Test D preemergence; format: in vivo, Lolium multiflorum; details: Lolium multiflorum, pre-emergence
Excerpt: as §2, §3

green foxtail [1] = test: Test D postemergence; format: in vivo, Setaria viridis; details: Setaria viridis, post-emergence
Excerpt: as §2, §3

green foxtail [2] = test: Test D preemergence; format: in vivo, Setaria viridis; details: Setaria viridis, pre-emergence
Excerpt: as §2, §3

winter barley = test: Test D postemergence; format: in vivo, Hordeum vulgare; details: Hordeum vulgare, post-emergence, Postemergence, scale 0 to 100 (0 no effect, 100 complete control), read-out: Plant response rating, Barley, Winter
How it was run: as §1

spring barley = test: Test D postemergence; format: in vivo, Hordeum vulgare; details: Hordeum vulgare, post-emergence, Postemergence, scale 0 to 100 (0 no effect, 100 complete control), read-out: Plant response rating, Barley, Spring
How it was run: as §1

kochia = test: Test D preemergence; format: in vivo, Kochia scoparia; details: Bassia scoparia, pre-emergence
Excerpt: as §2, §3

## Fc1cccc(Oc2ncc(Cl)cn2)c1-n1cc(C(F)F)nn1 [Compound 141, 5-chloro-2-[2-[4-(difluoromethyl)-1H-1,2,3-triazol-1-yl]-3-fluorophenoxy]pyrimidine]
chamomile; 16 g ai/ha, scale 0 (no effect) to 100 (complete control), read-out: Plant response rating, Chamomile
  pest or weed control at 16 g/ha: 90%
chamomile; 31 g ai/ha, scale 0-100, read-out: Plant response rating, Chamomile
  pest or weed control at 31 g/ha: 100%
chamomile; 62 g ai/ha, scale 0-100, read-out: Plant response rating, Chamomile
  pest or weed control at 62 g/ha: 70%
chamomile; 125 g ai/ha, scale 0-100, read-out: Plant response rating, Chamomile
  pest or weed control at 125 g/ha: 100%
galium; 16 g ai/ha, scale 0 (no effect) to 100 (complete control), read-out: Plant response rating, Galium
  pest or weed control at 16 g/ha: 75%
galium; 31 g ai/ha, scale 0-100, read-out: Plant response rating, Galium
  pest or weed control at 31 g/ha: 100%
galium; 62 g ai/ha, scale 0-100, read-out: Plant response rating, Galium
  pest or weed control at 62 g/ha: 100%
galium; 125 g ai/ha, scale 0-100, read-out: Plant response rating, Galium
  pest or weed control at 125 g/ha: 100%
chickweed; 16 g ai/ha, scale 0 (no effect) to 100 (complete control), read-out: Plant response rating, Chickweed
  pest or weed control at 16 g/ha: 100%
chickweed; 31 g ai/ha, scale 0-100, read-out: Plant response rating, Chickweed
  pest or weed control at 31 g/ha: 100%
chickweed; 62 g ai/ha, scale 0-100, read-out: Plant response rating, Chickweed
  pest or weed control at 62 g/ha: 100%
chickweed; 125 g ai/ha, scale 0-100, read-out: Plant response rating, Chickweed
  pest or weed control at 125 g/ha: 100%
canarygrass; 16 g ai/ha, scale 0 (no effect) to 100 (complete control), read-out: Plant response rating, Canarygrass
  pest or weed control at 16 g/ha: 35%
canarygrass; 31 g ai/ha, scale 0-100, read-out: Plant response rating, Canarygrass
  pest or weed control at 31 g/ha: 75%
canarygrass; 62 g ai/ha, scale 0-100, read-out: Plant response rating, Canarygrass
  pest or weed control at 62 g/ha: 100%
canarygrass; 125 g ai/ha, scale 0-100, read-out: Plant response rating, Canarygrass
  pest or weed control at 125 g/ha: 100%
Wild radish; 16 g ai/ha, scale 0-100, read-out: Plant response rating, Radish, Wild
  pest or weed control at 16 g/ha: 90%
Wild radish; 31 g ai/ha, scale 0 to 100 (0 no effect, 100 complete control), read-out: Plant response rating, Radish, Wild
  pest or weed control at 31 g/ha: 95%
Wild radish; 62 g ai/ha, scale 0 to 100 (0 no effect, 100 complete control), read-out: Plant response rating, Radish, Wild
  pest or weed control at 62 g/ha: 100%
Wild radish; 125 g ai/ha, scale 0 to 100 (0 no effect, 100 complete control), read-out: Plant response rating, Radish, Wild
  pest or weed control at 125 g/ha: 100%
speedwell; 16 g ai/ha, scale 0-100, read-out: Plant response rating, Speedwell
  pest or weed control at 16 g/ha: 100%
speedwell; 31 g ai/ha, scale 0 to 100 (0 no effect, 100 complete control), read-out: Plant response rating, Speedwell
  pest or weed control at 31 g/ha: 100%
speedwell; 62 g ai/ha, scale 0 to 100 (0 no effect, 100 complete control), read-out: Plant response rating, Speedwell
  pest or weed control at 62 g/ha: 100%
speedwell; 125 g ai/ha, scale 0 to 100 (0 no effect, 100 complete control), read-out: Plant response rating, Speedwell
  pest or weed control at 125 g/ha: 100%
Italian ryegrass; 16 g ai/ha, scale 0 (no effect) to 100 (complete control), read-out: Plant response rating, Ryegrass, Italian
  pest or weed control at 16 g/ha: 35%
Italian ryegrass; 31 g ai/ha, scale 0 (no effect) to 100 (complete control), read-out: Plant response rating, Ryegrass, Italian
  pest or weed control at 31 g/ha: 55%
Italian ryegrass; 62 g ai/ha, scale 0-100, read-out: Plant response rating, Ryegrass, Italian
  pest or weed control at 62 g/ha: 70%
Italian ryegrass; 125 g ai/ha, scale 0-100, read-out: Plant response rating, Ryegrass, Italian
  pest or weed control at 125 g/ha: 75%
Green foxtail [1]; 16 g ai/ha, scale 0-100, read-out: Plant response rating, Foxtail, Green
  pest or weed control at 16 g/ha: 15%
Green foxtail [1]; 31 g ai/ha, scale 0 to 100 (0 no effect, 100 complete control), read-out: Plant response rating, Foxtail, Green
  pest or weed control at 31 g/ha: 20%
Green foxtail [1]; 62 g ai/ha, scale 0 to 100 (0 no effect, 100 complete control), read-out: Plant response rating, Foxtail, Green
  pest or weed control at 62 g/ha: 45%
Green foxtail [1]; 125 g ai/ha, scale 0 to 100 (0 no effect, 100 complete control), read-out: Plant response rating, Foxtail, Green
  pest or weed control at 125 g/ha: 100%
Green foxtail [2]; 16 g ai/ha, scale 0 (no effect) to 100 (complete control), read-out: Plant response rating, Foxtail, Green
  pest or weed control at 16 g/ha: 10%
Green foxtail [2]; 31 g ai/ha, scale 0-100, read-out: Plant response rating, Foxtail, Green
  pest or weed control at 31 g/ha: 100%
Green foxtail [2]; 62 g ai/ha, scale 0-100, read-out: Plant response rating, Foxtail, Green
  pest or weed control at 62 g/ha: 100%
Green foxtail [2]; 125 g ai/ha, scale 0-100, read-out: Plant response rating, Foxtail, Green
  pest or weed control at 125 g/ha: 100%
Winter barley; 16 g ai/ha
  plant injury at 16 g/ha: 20%
Winter barley; 31 g ai/ha
  plant injury at 31 g/ha: 20%
Winter barley; 62 g ai/ha
  plant injury at 62 g/ha: 25%
Winter barley; 125 g ai/ha
  plant injury at 125 g/ha: 35%
Spring barley; 16 g ai/ha
  plant injury at 16 g/ha: 10%
Spring barley; 31 g ai/ha
  plant injury at 31 g/ha: 20%
Spring barley; 62 g ai/ha
  plant injury at 62 g/ha: 25%
Spring barley; 125 g ai/ha
  plant injury at 125 g/ha: 25%
kochia; 16 g ai/ha, scale 0 (no effect) to 100 (complete control), read-out: Plant response rating, Kochia
  pest or weed control at 16 g/ha: 85%
kochia; 31 g ai/ha, scale 0-100, read-out: Plant response rating, Kochia
  pest or weed control at 31 g/ha: 100%
kochia; 62 g ai/ha, scale 0-100, read-out: Plant response rating, Kochia
  pest or weed control at 62 g/ha: 100%
kochia; 125 g ai/ha, scale 0-100, read-out: Plant response rating, Kochia
  pest or weed control at 125 g/ha: 100%
